The results in this text go back to ChEMBL document CHEMBL3872247, “Discovery of dual positive allosteric modulators (PAMs) of the metabotropic glutamate 2 receptor and CysLT1 antagonists for treating migraine headache” (Bioorg Med Chem Lett, 2017).

By EC50 is commonly meant the midpoint of the concentration-response curve. For orientation: clearance means the volume of plasma or blood freed of the substance per unit of time. Read a high clearance as a high capacity for elimination. By IC50 is commonly meant the concentration that gives 50% inhibition. The inhibition is the drop in the measured response relative to a control, in per cent. For orientation: Ki means the dissociation constant of the complex between target and ligand, obtained from inhibition or displacement. A word on the half-life: it is the time needed for the level to fall by half in the phase considered. The low end stands for fast loss, the high end for slow loss. One may read the bioavailability as the share of a dose that reaches the circulation, judged against a reference dose that is usually intravenous. One may read the Cmax as the highest concentration seen after dosing. Usually Vd stands for the apparent volume that relates the amount in the body to the concentration in plasma or blood. The low end stands for little distribution into tissue, the high end for wide distribution into tissue.

Data set [1] addresses Metabotropic glutamate receptor 5 (Homo sapiens, UniProt P41594). Description: Positive allosteric modulation of recombinant human mGlu5 expressed in hamster AV12 cells expressing EAAT1 assessed as potentiation of glutamate-induced intracellular Ca2+ level measured after 24 hrs by FLIPR assay. The data set is classed as functional, cell-based.
The nature of data set [2]: Clearance in rat at 1 mg/kg, iv. The data set is classed as ADME, organism-based. The conditions noted are these: in vivo.
Data set [3] addresses T1, Metabotropic glutamate receptor 3 (Homo sapiens, UniProt Q14832). Description: Antagonist activity at recombinant human mGlu3 receptor expressed in hamster AV12 cells expressing EAAT1 assessed as inhibition of glutamate-induced intracellular Ca2+ level measured after 24 hrs by FLIPR assay. The data set is classed as functional, cell-based.
For data set [4], the target named is Metabotropic glutamate receptor 8 (Homo sapiens) (UniProt O00222). As to the kind of experiment: Positive allosteric modulation of recombinant human mGlu8 expressed in hamster AV12 cells expressing EAAT1 assessed as potentiation of glutamate-induced intracellular Ca2+ level at 20 uM after 24 hrs by FLIPR assay. The data set is classed as functional, cell-based.

For data set [5], the target named is Adenosine receptor A1 (Homo sapiens) (UniProt P30542). As to the kind of experiment: Displacement of [3H]DPCPX from human adenosine A1 receptor at 10 uM measured after 60 mins by scintillation counting method. In general terms: Displacement assays read how much labelled ligand stays bound in the presence of the test substance.
In data set [6] the target is 5-hydroxytryptamine receptor 2B (Homo sapiens, UniProt P41595). As to the kind of experiment: Activity at human 5T2B receptor.
In data set [7] the test system is Rattus norvegicus. Description: Decrease in plasma protein extravasation in fasted Harlan Sprague-Dawley rat model of migraine compound administered via oral gavage 1 hr prior to electrical stimulation of trigeminal ganglion measured after 15 mins by FITC-BSA based fluorescence assay. The data set is classed as functional.
The target in data set [8] is T2, Metabotropic glutamate receptor 2 (Homo sapiens, UniProt Q14416). Description: Agonist activity at recombinant human mGlu2 receptor expressed in hamster AV12 cells expressing EAAT1 assessed as increase in intracellular calcium level measured after 24 to 48 hrs by FLIPR assay. The data set is classed as functional, cell-based. On the technique in general: A change in cytosolic calcium serves as a functional read-out for many receptors and channels.

Data set [9] concerns the target T2, Metabotropic glutamate receptor 2. Description: Antagonist activity at recombinant human mGlu2 receptor expressed in hamster AV12 cells expressing EAAT1 assessed as inhibition of glutamate-induced increase in intracellular Ca2+ level measured after 24 to 48 hrs by FLIPR assay. The data set is classed as functional, cell-based.
The target of data set [10] is Metabotropic glutamate receptor 1 (Homo sapiens, UniProt Q13255). Description: Agonist activity at recombinant human mGlu1 expressed in hamster AV12 cells expressing EAAT1 assessed as increase in intracellular calcium level measured after 24 hrs by FLIPR assay. The data set is classed as functional, cell-based.
The nature of data set [11]: Half life in rat at 1 mg/kg, po. The data set is classed as ADME, organism-based. The conditions noted are these: in vivo.
Data set [12] can be described thus: Oral bioavailability in dog at 1 mg/kg. The data set is classed as ADME, organism-based, Canis lupus familiaris. The conditions noted are these: in vivo.
For data set [13], the target named is T3, Cysteinyl leukotriene receptor 1 (Homo sapiens, UniProt Q9Y271).
T3 sequence (Q9Y271 whole entry): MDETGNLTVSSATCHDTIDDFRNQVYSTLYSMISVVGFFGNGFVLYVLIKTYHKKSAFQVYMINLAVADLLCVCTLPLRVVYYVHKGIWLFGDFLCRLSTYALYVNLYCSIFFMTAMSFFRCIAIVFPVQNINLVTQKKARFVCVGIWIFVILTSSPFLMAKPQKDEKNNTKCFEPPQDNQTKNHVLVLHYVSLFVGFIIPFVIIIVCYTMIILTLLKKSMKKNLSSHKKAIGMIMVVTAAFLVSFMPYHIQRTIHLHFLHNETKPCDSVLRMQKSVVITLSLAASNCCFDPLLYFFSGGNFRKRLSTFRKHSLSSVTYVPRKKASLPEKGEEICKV
Description: Antagonist activity at human CysLT1 receptor expressed in Syrian hamster AV12-664 cells assessed as decrease in LTD4-induced intracellular calcium level pretreated followed by LTD4 addition by fluo-3 dye based FLIPR assay. The data set is classed as functional, cell-based.

Data set [14] concerns the target 5-hydroxytryptamine receptor 4 (Homo sapiens, UniProt Q13639). As to the kind of experiment: Displacement of human recombinant 5HT4E receptor expressed in CHO cells after 60 mins by scintillation counting method. The data set is classed as cell-based.
The nature of data set [15]: Cmax in dog at 0.5 mg/kg, iv. The data set is classed as ADME, organism-based, Canis lupus familiaris. Set-up: dose 0.5 mg/kg, route intravenous. The conditions noted are these: in vivo.
For data set [16], the species on record is Rattus norvegicus. Description: Displacement of [3H]D888 from L-type calcium channel verapamil binding site in rat cerebral cortex at 10 uM measured after 120 mins by scintillation counting method.
The species entered for data set [17] is Rattus norvegicus. As to the kind of experiment: Displacement of [3H]GABA from non-selective GABA channel in rat cerebral cortex at 10 uM measured after 60 mins by scintillation counting method.
A short description of data set [18]: Half life in rat at 1 mg/kg, iv. The data set is classed as ADME, organism-based. The note with it: in vivo.
A short description of data set [19]: Clearance in dog at 0.5 mg/kg, iv. The data set is classed as ADME, organism-based, Canis lupus familiaris. The conditions noted are these: in vivo.
Data set [20] is described as follows: Volume of distribution in rat at 1 mg/kg, iv. The conditions noted are these: in vivo. The data set is classed as ADME, organism-based.
In data set [21] the target is 5-hydroxytryptamine receptor 2A (Homo sapiens, UniProt P28223). As to the kind of experiment: Activity at human 5HT2A receptor.
Data set [22] deals with T1, Metabotropic glutamate receptor 3. Description: Positive allosteric modulation of recombinant human mGlu3 expressed in hamster AV12 cells expressing EAAT1 assessed as potentiation of glutamate-induced intracellular Ca2+ level measured after 24 hrs by FLIPR assay. The data set is classed as functional, cell-based.
Data set [23] deals with Muscarinic acetylcholine receptor (Rattus norvegicus) (UniProt P08482+P08483+P08485+P08911+P10980). Description: Displacement of [3H]QNB from non-selective muscarinic receptor in rat cerebral cortex at 10 uM measured after 120 mins by scintillation counting method.

T1 sequence (Q14832 whole entry): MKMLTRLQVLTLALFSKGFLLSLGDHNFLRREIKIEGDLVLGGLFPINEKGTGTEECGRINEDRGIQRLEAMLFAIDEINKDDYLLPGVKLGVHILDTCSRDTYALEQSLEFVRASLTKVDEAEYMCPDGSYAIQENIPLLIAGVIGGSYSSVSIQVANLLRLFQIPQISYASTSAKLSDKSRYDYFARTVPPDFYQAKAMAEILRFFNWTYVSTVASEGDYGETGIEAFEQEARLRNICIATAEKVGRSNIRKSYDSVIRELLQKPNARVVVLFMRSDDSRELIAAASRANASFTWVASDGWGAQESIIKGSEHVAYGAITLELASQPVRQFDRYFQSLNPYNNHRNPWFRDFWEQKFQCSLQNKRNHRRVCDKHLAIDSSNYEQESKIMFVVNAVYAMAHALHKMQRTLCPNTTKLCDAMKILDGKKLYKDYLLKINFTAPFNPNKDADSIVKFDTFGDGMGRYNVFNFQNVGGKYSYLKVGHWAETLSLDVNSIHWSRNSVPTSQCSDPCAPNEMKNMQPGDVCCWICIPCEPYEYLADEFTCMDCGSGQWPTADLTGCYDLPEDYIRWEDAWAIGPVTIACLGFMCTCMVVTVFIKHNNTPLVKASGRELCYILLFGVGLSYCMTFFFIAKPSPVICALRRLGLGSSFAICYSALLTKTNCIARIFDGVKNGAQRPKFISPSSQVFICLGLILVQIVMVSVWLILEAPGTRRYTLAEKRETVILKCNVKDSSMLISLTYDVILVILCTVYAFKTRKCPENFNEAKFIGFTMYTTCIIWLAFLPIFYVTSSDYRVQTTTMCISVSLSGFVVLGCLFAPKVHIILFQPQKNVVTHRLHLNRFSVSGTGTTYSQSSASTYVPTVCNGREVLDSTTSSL
T2 sequence (Q14416 whole entry): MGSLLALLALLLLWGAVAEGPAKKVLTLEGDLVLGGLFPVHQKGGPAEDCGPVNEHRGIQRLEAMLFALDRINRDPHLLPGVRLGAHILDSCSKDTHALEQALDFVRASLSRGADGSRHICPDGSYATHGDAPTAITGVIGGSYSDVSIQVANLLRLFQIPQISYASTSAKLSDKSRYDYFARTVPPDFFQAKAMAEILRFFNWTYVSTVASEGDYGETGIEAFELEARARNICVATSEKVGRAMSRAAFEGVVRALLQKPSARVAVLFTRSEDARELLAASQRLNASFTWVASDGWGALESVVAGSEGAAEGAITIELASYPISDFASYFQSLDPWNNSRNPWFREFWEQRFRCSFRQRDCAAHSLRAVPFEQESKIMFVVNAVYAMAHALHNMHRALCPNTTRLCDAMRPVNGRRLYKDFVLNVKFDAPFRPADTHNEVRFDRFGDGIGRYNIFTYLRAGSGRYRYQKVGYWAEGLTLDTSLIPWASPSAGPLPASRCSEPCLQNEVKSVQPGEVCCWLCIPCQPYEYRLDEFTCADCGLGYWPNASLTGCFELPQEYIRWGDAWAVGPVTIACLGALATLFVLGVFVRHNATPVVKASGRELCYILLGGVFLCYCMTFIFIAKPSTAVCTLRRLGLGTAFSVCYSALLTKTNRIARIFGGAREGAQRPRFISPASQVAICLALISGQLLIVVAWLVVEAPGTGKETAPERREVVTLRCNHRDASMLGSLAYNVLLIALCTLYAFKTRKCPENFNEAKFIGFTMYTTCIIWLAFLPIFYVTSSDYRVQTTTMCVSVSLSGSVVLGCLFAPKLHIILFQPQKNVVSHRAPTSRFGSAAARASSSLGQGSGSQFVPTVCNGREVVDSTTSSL
Sequence of Adenosine receptor A1 (Homo sapiens) (P30542 whole entry): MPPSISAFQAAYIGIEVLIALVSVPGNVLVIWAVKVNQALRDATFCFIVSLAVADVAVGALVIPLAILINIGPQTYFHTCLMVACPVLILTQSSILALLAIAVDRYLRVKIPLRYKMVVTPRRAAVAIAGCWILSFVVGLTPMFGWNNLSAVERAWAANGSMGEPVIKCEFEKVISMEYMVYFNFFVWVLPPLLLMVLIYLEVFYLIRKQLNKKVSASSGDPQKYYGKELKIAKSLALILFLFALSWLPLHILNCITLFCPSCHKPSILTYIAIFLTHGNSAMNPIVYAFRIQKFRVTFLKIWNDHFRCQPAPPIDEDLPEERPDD
Sequence of Metabotropic glutamate receptor 5 (P41594 whole entry): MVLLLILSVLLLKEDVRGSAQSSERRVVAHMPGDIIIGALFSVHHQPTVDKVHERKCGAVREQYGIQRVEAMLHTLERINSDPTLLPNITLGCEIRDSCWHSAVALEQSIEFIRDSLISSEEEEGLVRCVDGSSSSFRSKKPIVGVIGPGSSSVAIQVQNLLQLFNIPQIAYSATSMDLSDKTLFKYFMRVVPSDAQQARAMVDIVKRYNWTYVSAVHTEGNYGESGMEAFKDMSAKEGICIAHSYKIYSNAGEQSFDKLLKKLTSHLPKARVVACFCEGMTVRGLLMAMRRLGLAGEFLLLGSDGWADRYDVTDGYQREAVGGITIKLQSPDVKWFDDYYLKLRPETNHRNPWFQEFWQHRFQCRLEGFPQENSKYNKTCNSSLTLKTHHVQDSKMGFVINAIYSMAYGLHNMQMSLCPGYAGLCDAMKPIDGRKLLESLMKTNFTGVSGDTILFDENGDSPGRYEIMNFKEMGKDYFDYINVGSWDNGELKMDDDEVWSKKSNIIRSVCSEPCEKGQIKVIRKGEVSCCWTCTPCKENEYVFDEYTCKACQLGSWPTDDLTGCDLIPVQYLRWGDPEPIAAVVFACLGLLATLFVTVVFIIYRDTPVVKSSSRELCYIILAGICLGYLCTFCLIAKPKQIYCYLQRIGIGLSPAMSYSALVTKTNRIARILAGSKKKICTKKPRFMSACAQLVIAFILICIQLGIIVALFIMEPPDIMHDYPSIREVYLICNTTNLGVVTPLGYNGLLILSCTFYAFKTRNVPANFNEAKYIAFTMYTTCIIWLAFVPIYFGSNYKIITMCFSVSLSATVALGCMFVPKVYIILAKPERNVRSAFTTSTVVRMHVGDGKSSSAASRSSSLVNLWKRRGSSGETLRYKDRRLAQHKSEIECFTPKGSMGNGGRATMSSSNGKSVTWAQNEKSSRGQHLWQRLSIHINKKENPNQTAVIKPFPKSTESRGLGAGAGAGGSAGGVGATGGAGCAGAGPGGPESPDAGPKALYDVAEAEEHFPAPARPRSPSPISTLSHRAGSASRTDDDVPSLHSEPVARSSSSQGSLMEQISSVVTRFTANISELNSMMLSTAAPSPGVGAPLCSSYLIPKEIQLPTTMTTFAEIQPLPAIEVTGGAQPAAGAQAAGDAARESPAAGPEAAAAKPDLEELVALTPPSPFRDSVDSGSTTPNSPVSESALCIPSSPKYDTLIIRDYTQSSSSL
Sequence of Metabotropic glutamate receptor 8 (Homo sapiens) (O00222 whole entry): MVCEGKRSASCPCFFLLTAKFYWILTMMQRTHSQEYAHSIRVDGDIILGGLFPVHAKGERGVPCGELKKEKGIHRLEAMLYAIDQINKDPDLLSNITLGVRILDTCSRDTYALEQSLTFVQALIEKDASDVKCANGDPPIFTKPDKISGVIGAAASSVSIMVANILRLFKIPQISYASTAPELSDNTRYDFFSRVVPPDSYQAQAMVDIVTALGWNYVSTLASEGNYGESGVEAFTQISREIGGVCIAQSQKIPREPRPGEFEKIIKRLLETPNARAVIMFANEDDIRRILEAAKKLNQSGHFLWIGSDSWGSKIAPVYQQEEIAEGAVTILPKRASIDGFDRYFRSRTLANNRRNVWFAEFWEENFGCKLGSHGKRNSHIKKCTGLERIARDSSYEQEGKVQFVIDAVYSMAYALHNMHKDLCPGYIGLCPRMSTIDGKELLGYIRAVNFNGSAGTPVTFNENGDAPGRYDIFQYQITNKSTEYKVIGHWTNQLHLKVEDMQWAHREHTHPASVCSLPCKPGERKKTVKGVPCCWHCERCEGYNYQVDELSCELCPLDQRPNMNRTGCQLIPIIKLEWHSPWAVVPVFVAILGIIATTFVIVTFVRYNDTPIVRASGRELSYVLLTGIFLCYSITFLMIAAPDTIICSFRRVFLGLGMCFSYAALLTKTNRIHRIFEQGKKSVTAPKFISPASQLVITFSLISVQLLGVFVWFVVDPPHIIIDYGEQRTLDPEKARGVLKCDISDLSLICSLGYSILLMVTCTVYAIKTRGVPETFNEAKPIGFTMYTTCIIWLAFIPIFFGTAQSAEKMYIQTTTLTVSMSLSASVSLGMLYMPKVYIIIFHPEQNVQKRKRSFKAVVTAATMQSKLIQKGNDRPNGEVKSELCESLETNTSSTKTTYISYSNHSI
Sequence of 5-hydroxytryptamine receptor 4 (Q13639 whole entry): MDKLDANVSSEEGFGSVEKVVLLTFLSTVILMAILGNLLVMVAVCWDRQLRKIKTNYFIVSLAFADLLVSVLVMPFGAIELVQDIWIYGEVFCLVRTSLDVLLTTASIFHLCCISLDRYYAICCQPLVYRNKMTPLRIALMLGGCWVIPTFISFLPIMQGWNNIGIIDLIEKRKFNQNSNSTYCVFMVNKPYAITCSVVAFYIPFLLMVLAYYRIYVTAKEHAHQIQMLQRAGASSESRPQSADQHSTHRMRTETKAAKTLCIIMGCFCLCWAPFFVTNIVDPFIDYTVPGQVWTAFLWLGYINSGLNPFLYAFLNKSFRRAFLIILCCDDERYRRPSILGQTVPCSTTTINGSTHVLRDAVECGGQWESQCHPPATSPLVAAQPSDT
Sequence of 5-hydroxytryptamine receptor 2B (P41595 whole entry): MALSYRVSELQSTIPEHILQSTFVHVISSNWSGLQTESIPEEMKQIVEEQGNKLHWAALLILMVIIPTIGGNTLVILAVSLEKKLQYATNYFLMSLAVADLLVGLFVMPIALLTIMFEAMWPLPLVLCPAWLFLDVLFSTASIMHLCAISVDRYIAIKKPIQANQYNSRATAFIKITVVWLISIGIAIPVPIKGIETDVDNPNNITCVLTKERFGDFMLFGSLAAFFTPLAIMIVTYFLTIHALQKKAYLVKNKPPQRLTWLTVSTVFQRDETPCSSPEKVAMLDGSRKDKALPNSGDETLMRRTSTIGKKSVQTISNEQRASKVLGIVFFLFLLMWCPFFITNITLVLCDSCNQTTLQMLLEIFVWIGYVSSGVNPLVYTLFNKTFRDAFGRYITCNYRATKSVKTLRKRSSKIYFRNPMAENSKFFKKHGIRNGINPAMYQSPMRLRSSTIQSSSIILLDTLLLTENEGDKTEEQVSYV

For the compound `CC(=O)c1ccc(OCc2ccc(Oc3cc(-c4nn[nH]n4)ccn3)cc2)c(C)c1O`, the EC50 in [1] was above 12.5 µM; in data set [8], above 25 µM; in data set [10], above 25 µM; in data set [22], above 12.5 µM. Also, the figures for the clearance in [2] and in [19] were 11 mL/min/kg and 12 mL/min/kg, respectively. In addition, the 50% inhibitory concentration (IC50) in data set [3] is above 12.5 µM; in [9], above 12.5 µM; in [13], 0.0241 µM. In addition, the Activity was below 20% in data set [4] and “Dose-dependent effect” with Rattus norvegicus [7]. Besides, the inhibition in [5] is -4.5%; in the data set filed under Rattus norvegicus [16], 63.1%; in the data set filed under Rattus norvegicus [17], -6%; in data set [23], 22.9%. For the same compound, the figures for the Ki in [6], in data set [14] and in data set [21] were above 3.3 µM, above 6.31 µM and above 7.47 µM, respectively. Further, the ID100 with Rattus norvegicus [7] is 1 µg/kg. In addition, the half-life in data set [11] was 8 h; in data set [18] it was 2 h. This compound displayed a bioavailability in data set [12] of 32%. Moreover, the peak concentration (Cmax) in [15] turned out to be 2540 ng/mL. The compound further showed a Vd in data set [20] of 2 L/kg.
